Measurements published in article PMC12051620, “Molecular basis underlying the specificity of an antagonist AA92593 for mammalian melanopsins” (The Journal of Biological Chemistry, 2025).

Target: T1, mouse melanopsin WT (Mus musculus, UniProt Q9QXZ9)
T1 construct: expressed in transfected cells; host or cells: COS-1
T1 sequence (Q9QXZ9 1-381 limits assumed): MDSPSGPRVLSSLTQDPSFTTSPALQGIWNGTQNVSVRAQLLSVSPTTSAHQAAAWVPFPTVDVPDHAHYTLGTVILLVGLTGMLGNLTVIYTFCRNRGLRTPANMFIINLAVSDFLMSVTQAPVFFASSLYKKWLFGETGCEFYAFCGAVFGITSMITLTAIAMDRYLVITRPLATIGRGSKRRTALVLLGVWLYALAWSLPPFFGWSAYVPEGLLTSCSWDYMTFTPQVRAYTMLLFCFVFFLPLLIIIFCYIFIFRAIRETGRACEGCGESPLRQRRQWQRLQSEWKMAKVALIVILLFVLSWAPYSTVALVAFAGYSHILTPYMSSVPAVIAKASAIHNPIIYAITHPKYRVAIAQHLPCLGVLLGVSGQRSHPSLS
Assay: GsX GloSensor assay with Gsα/q11
Assay type: cell-based
Conditions: COS-1 cells
Text: To quantify the antagonistic effects of AA92593 on mammalian melanopsins, we used the GsX GloSensor assay ([12], [13], [14]). This assay measures GPCR-induced increases in intracellular cAMP levels even for Gq-, Gi/o-, or G12-coupled receptors by using Gsα chimeras ([12], [13], [14]). Because melanopsin is primarily coupled with Gq-type G proteins, a Gsα mutant with 11 C-terminal sequence of Gqα (Gsα/q11) was expressed in COS-1 cells with melanopsin and a luciferase-based cAMP biosensor (see “Experimental procedures”) ([15]). This assay enables the measurement of Gq activation by melanopsin as cAMP production (an increase in luminescence). In this study, we used C-terminal–truncated melanopsin constructs to increase the expression levels with minimal compromise in functionality ([9], [16], [17], [18], [19]). […] In addition, the C-terminal region is located far from the binding site of AA92593 (see below). Hereafter, the C-terminal–truncated melanopsin constructs are named as “WT.”
In the constructs for melanopsin expression (opsin name - GenBank ID: human melanopsin - NM_033282.4, mouse melanopsin - NM_013887.2, Xenopus Opn4x - NM_001085674.1, chicken opn4-1 - NM_001397961.1, B. belcheri melanopsin - AB205400.1, and B. lanceolatum melanopsin - MF464477.1), the C-terminal amino acid residues (94, 140, 200, 214, 296, and 308 residues for human ([9]), mouse ([9]), Xenopus, chicken, belcheri ([16]), and lanceolatum melanopsins, respectively) were removed, the 1D4 tag sequence (ETSQVAPA) was added, and inserted into the EcoRI/NotI site in a mammalian expression vector pMT. Jumping spider rhodopsin-1 (GenBank ID: AB251846.1) was also added with the 1D4 tag and inserted into pMT vector. Human and mouse melanopsins, and jumping spider rhodopsin-1 in pCDNA3.1 were kindly provided from Drs. Akihisa Terakita and Mitsumasa Koyanagi (Osaka Metropolitan University). In this paper, each opsin with the C-terminal sequence modifications as described above is denoted “WT.” Bovine Gsα and its mutants Gsα/q11 and Gsα/i11 (C-terminal 11 residues are replaced with Gqα and Giα, respectively) were also inserted into the pMT vector. The GFP-tagged melanopsin constructs, in which EGFP protein fused with C-termini of melanopsins, were prepared as previously described ([9], [50]). […]
For GloSensor assay, opsins, GloSensor assay sensor (coded by pGlo-22F), and NanoBiT-tagged G proteins were transiently expressed in COS-1 cells (kindly provided from Dr David Farrens, Oregon Health and Science University) using PEI as described previously ([24], [52]). […] For GFP-fluorescence microscopy, a 35-mm cell culture dish (IWAKI) was transfected with 2 μg melanopsin-GFP plasmid and 8 μg PEI in 400 μl Opti-mem and 1.2 ml D-MEM. […]

[1] = relative peak cAMP response vs no AA92593

COc1ccc(S(=O)(=O)N2CCCCC2)cc1C [AA92593]
Hill fitting parameter rate of dose-response curve: −1.15 ± 0.18 | IC50 (0.1 μM 9-cis-retinal, white light 10 s, n = 3, read-out: IC50, reduction in peak cAMP responses upon Gsα/q11 activation): 2.98 ± 0.58 µM | Hill fitting parameter max of dose-response curve [1]: 98.86 ± 1.11 | Hill fitting parameter min of dose-response curve [1]: 46.53 ± 4.15
